{"source": "ChEMBL document CHEMBL3085639", "about": "“Novel camphane-based anti-tuberculosis agents with nanomolar activity” (2013)", "key": {"[1]": {"test_system": "Mycobacterium tuberculosis", "assay": "Antimycobacterial activity against Mycobacterium tuberculosis H37Rv assessed as growth inhibition after 45 days by Canetti proportional method", "type": "functional", "details": "for MIC: Mycobacterium tuberculosis, H37Rv"}, "[2]": {"test_system": "Mycobacterium tuberculosis", "assay": "Antimycobacterial activity against Mycobacterium tuberculosis", "type": "functional"}}, "note": "Structures can show the parent of a compound that is named as a salt.", "data": [{"compound": "CC1(C)[C@@H]2CC[C@@]1(C)[C@H](O)[C@@H]2NC(=O)/C=C/c1ccccc1", "values": [{"measurement": "-logMIC", "setting": "[1]", "result": 6.481}, {"measurement": "MIC", "setting": "[1]", "result": 0.33, "unit": "µM"}]}, {"compound": "CC1(C)[C@@H]2CC[C@@]1(C)[C@H](O)[C@@H]2NC(=O)c1ccco1", "values": [{"measurement": "-logMIC", "setting": "[1]", "result": 6.42}, {"measurement": "MIC", "setting": "[1]", "result": 0.38, "unit": "µM"}]}, {"compound": "CC(=O)Oc1ccccc1C(=O)N[C@@H]1[C@H]2CC[C@@](C)([C@@H]1O)C2(C)C", "values": [{"measurement": "-logMIC", "setting": "[1]", "result": 6.523}, {"measurement": "MIC", "setting": "[1]", "result": 0.3, "unit": "µM"}]}, {"compound": "CC1(C)[C@@H]2CC[C@@]1(C)[C@H](O)[C@@H]2NC(=O)c1cccnc1", "values": [{"measurement": "-logMIC", "setting": "[1]", "result": 6.444}, {"measurement": "MIC", "setting": "[1]", "result": 0.36, "unit": "µM"}]}, {"compound": "CC1(C)[C@@H]2CC[C@@]1(C)[C@H](O)[C@@H]2NP(=O)(c1ccccc1)c1ccccc1", "values": [{"measurement": "-logMIC", "setting": "[1]", "result": 4.868}, {"measurement": "MIC", "setting": "[1]", "result": 13.6, "unit": "µM"}]}, {"compound": "CCNC(=O)N[C@@H]1[C@H]2CC[C@@](C)([C@@H]1O)C2(C)C", "values": [{"measurement": "-logMIC", "setting": "[1]", "result": 6.387}, {"measurement": "MIC", "setting": "[1]", "result": 0.41, "unit": "µM"}]}, {"compound": "CC1(C)[C@@H]2CC[C@@]1(C)[C@H](O)[C@@H]2NC(=O)[C@@H](O)c1ccccc1", "values": [{"measurement": "-logMIC", "setting": "[1]", "result": 4.783}, {"measurement": "MIC", "setting": "[1]", "result": 16.5, "unit": "µM"}]}, {"compound": "CC1(C)[C@@H]2CC[C@@]1(C)[C@H](O)[C@@H]2NC(=O)[C@@H](O)Cc1ccccc1", "values": [{"measurement": "-logMIC", "setting": "[1]", "result": 5.201}, {"measurement": "MIC", "setting": "[1]", "result": 6.3, "unit": "µM"}]}, {"compound": "CC(C)[C@H](O)C(=O)N[C@@H]1[C@H]2CC[C@@](C)([C@@H]1O)C2(C)C", "values": [{"measurement": "-logMIC", "setting": "[1]", "result": 6.131}, {"measurement": "MIC", "setting": "[1]", "result": 0.74, "unit": "µM"}]}, {"compound": "CC[C@H](C)[C@H](O)C(=O)N[C@@H]1[C@H]2CC[C@@](C)([C@@H]1O)C2(C)C", "values": [{"measurement": "-logMIC", "setting": "[1]", "result": 5.151}, {"measurement": "MIC", "setting": "[1]", "result": 7.06, "unit": "µM"}]}, {"compound": "CSCC[C@H](O)C(=O)N[C@@H]1[C@H]2CC[C@@](C)([C@@H]1O)C2(C)C", "values": [{"measurement": "-logMIC", "setting": "[1]", "result": 6.18}, {"measurement": "MIC", "setting": "[1]", "result": 0.66, "unit": "µM"}]}, {"compound": "CC1(C)[C@@H]2CC[C@@]1(C)[C@H](O)[C@@H]2NC(=O)CCc1ccccc1", "values": [{"measurement": "-logMIC", "setting": "[1]", "result": 6.481}, {"measurement": "MIC", "setting": "[1]", "result": 0.33, "unit": "µM"}]}, {"compound": "CC[C@@H](CO)NCCN[C@@H](CC)CO", "note": "[ETHAMBUTOL HYDROCHLORIDE]", "values": [{"measurement": "MIC", "setting": "[1]", "result": 7.22, "unit": "µM"}]}, {"compound": "CC[C@@H](CO)NCCN[C@@H](CC)CO", "note": "[ETHAMBUTOL]", "values": [{"measurement": "MIC", "setting": "[2]", "result": 10, "unit": "µM"}]}]}
